# From ChEMBL document CHEMBL4229455, “Synthesis and anticancer activity of novel bisindolylhydroxymaleimide derivatives with potent GSK-3 kinase inhibition” (Bioorg Med Chem, 2018)
# How the values were obtained:
# Type in all cases: functional
# SK-MEL-2 [1] = assay: Cytotoxicity against human SK-MEL-2 cells assessed as cell growth at 100 uM after 48 hrs by SRB assay relative to control; conditions: SK-MEL-2, 48 h, read-out: Activity
# NCI-H23 [2] = assay: Cytotoxicity against human NCI-H23 cells assessed as cell growth at 1 uM after 48 hrs by SRB assay relative to control; conditions: NCI-H23, 48 h, read-out: Activity
# HCC 2998 = assay: Cytotoxicity against human HCC2998 cells assessed as cell growth at 100 uM after 48 hrs by SRB assay relative to control; conditions: HCC 2998, 48 h, read-out: Activity
# A549 = assay: Cytotoxicity against human A549 cells assessed as cell growth at 100 uM after 48 hrs by SRB assay relative to control; conditions: A549, 48 h, read-out: Activity
# MOLT-4 = assay: Cytotoxicity against human MOLT4 cells after 48 hrs by SRB assay; conditions: MOLT-4, 48 h; for CC50: read-out: LC50 (the source's name)
# MDA-MB-468 [3] = assay: Cytotoxicity against human MDA-MB-468 cells assessed as cell growth at 0.01 uM after 48 hrs by SRB assay relative to control; conditions: MDA-MB-468, 48 h, read-out: Activity
# PC-3 = assay: Cytotoxicity against human PC3 cells assessed as cell growth at 100 uM after 48 hrs by SRB assay relative to control; conditions: PC-3, 48 h, read-out: Activity
# MDA-MB-468 [4] = assay: Cytotoxicity against human MDA-MB-468 cells assessed as cell growth at 0.1 uM after 48 hrs by SRB assay relative to control; conditions: MDA-MB-468, 48 h, read-out: Activity
# MDA-MB-231 [5] = assay: Cytotoxicity against human MDA-MB-231 cells after 48 hrs by SRB assay; conditions: MDA-MB-231, 48 h
# HOP-62 = assay: Cytotoxicity against human HOP62 cells assessed as cell growth at 0.1 uM after 48 hrs by SRB assay relative to control; conditions: HOP-62, 48 h, read-out: Activity
# OVCAR-5 = assay: Cytotoxicity against human OVCAR5 cells after 48 hrs by SRB assay; conditions: OVCAR-5, 48 h
# IGROV-1 = assay: Cytotoxicity against human IGROV1 cells assessed as cell growth at 1 uM after 48 hrs by SRB assay relative to control; conditions: IGROV-1, 48 h, read-out: Activity
# HL-60(TB) [6] = assay: Cytotoxicity against human HL-60(TB) cells assessed as cell growth at 100 uM after 48 hrs by SRB assay relative to control; conditions: HL-60, 48 h, read-out: Activity
# HT-29 = assay: Cytotoxicity against human HT-29 cells assessed as cell growth at 0.01 uM after 48 hrs by SRB assay relative to control; conditions: HT-29, 48 h, read-out: Activity
# SK-OV-3 = assay: Cytotoxicity against human SKOV3 cells assessed as cell growth at 0.1 uM after 48 hrs by SRB assay relative to control; conditions: SK-OV-3, 48 h, read-out: Activity
# SF-539 = assay: Cytotoxicity against human SF539 cells assessed as cell growth at 0.01 uM after 48 hrs by SRB assay relative to control; conditions: SF-539, 48 h, read-out: Activity
# MDA-MB-231 [7] = assay: Cytotoxicity against human MDA-MB-231 cells assessed as cell growth at 100 uM after 48 hrs by SRB assay relative to control; conditions: MDA-MB-231, 48 h, read-out: Activity
# SK-MEL-2 [8] = assay: Cytotoxicity against human SK-MEL-2 cells assessed as cell growth at 0.1 uM after 48 hrs by SRB assay relative to control; conditions: SK-MEL-2, 48 h, read-out: Activity
# DU-145 = assay: Cytotoxicity against human DU145 cells assessed as cell growth at 1 uM after 48 hrs by SRB assay relative to control; conditions: DU-145, 48 h, read-out: Activity
# NCI-H226 = assay: Cytotoxicity against human NCI-H226 cells assessed as cell growth at 100 uM after 48 hrs by SRB assay relative to control; conditions: NCI-H226, 48 h, read-out: Activity
# K562 = assay: Cytotoxicity against human K562 cells assessed as cell growth at 1 uM after 48 hrs by SRB assay relative to control; conditions: K562, 48 h, read-out: Activity
# HCT-15 = assay: Cytotoxicity against human HCT15 cells after 48 hrs by SRB assay; conditions: HCT-15, 48 h
# CAKI-1 = assay: Cytotoxicity against human Caki1 cells assessed as cell growth at 0.1 uM after 48 hrs by SRB assay relative to control; conditions: CAKI-1, 48 h, read-out: Activity
# SK-MEL-5 = assay: Cytotoxicity against human SK-MEL-5 cells assessed as cell growth at 0.01 uM after 48 hrs by SRB assay relative to control; conditions: SK-MEL-5, 48 h, read-out: Activity
# BT-549 = assay: Cytotoxicity against human BT549 cells assessed as cell growth at 1 uM after 48 hrs by SRB assay relative to control; conditions: BT-549, 48 h, read-out: Activity
# 786-0 = assay: Cytotoxicity against human 786-O cells after 48 hrs by SRB assay; conditions: 786-0, 48 h
# NCI-H460 = assay: Cytotoxicity against human NCI-H460 cells assessed as cell growth at 100 uM after 48 hrs by SRB assay relative to control; conditions: NCI-H460, 48 h, read-out: Activity
# M14 = assay: Cytotoxicity against human M14 cells after 48 hrs by SRB assay; conditions: M14, 48 h
# SF-295 = assay: Cytotoxicity against human SF295 cells assessed as cell growth at 0.01 uM after 48 hrs by SRB assay relative to control; conditions: SF-295, 48 h, read-out: Activity
# SR = assay: Cytotoxicity against human SR cells assessed as cell growth at 0.01 uM after 48 hrs by SRB assay relative to control; conditions: read-out: Activity
# NCI-H23 [9] = assay: Cytotoxicity against human NCI-H23 cells after 48 hrs by SRB assay; conditions: NCI-H23, 48 h
# MCF7 = assay: Cytotoxicity against human MCF7 cells assessed as cell growth at 0.1 uM after 48 hrs by SRB assay relative to control; conditions: MCF7, 48 h, read-out: Activity
# TK-10 = assay: Cytotoxicity against human TK10 cells assessed as cell growth at 100 uM after 48 hrs by SRB assay relative to control; conditions: TK-10, 48 h, read-out: Activity
# HL-60(TB) [10] = assay: Cytotoxicity against human HL-60(TB) cells assessed as cell growth at 1 uM after 48 hrs by SRB assay relative to control; conditions: HL-60, 48 h, read-out: Activity
# OVCAR-3 = assay: Cytotoxicity against human OVCAR3 cells assessed as cell growth at 1 uM after 48 hrs by SRB assay relative to control; conditions: OVCAR-3, 48 h, read-out: Activity
compound,measurement,setting,value
Cn1cc(C2=C(c3cn(C)c4ncccc34)C(=O)NC2=O)c2ccccc21,growth at 100 µM,SK-MEL-2 [1],-55%
same,growth at 1 µM,NCI-H23 [2],84%
same,growth at 100 µM,HCC 2998,-37%
same,growth at 100 µM,A549,-19%
same,GI50,MOLT-4,3.53 µM
same,TGI,MOLT-4,17.7 µM
same,CC50,MOLT-4,> 100 µM
same,growth at 0.01 µM,MDA-MB-468 [3],101%
same,growth at 100 µM,PC-3,-9%
same,growth at 0.1 µM,MDA-MB-468 [4],96%
same,GI50,MDA-MB-231 [5],4.67 µM
same,TGI,MDA-MB-231 [5],38.8 µM
same,growth at 0.1 µM,HOP-62,103%
same,GI50,OVCAR-5,3.88 µM
same,TGI,OVCAR-5,29.1 µM
same,growth at 1 µM,IGROV-1,117%
same,growth at 100 µM,HL-60(TB) [6],-28%
same,growth at 0.01 µM,HT-29,109%
same,growth at 0.1 µM,SK-OV-3,102%
same,growth at 0.01 µM,SF-539,99%
same,growth at 100 µM,MDA-MB-231 [7],-25%
same,growth at 0.1 µM,SK-MEL-2 [8],113%
same,growth at 1 µM,DU-145,104%
same,growth at 100 µM,NCI-H226,-16%
same,growth at 1 µM,K562,76%
same,GI50,HCT-15,3.49 µM
same,TGI,HCT-15,60.5 µM
same,growth at 0.1 µM,CAKI-1,86%
same,growth at 0.01 µM,SK-MEL-5,102%
same,growth at 1 µM,BT-549,85%
same,GI50,786-0,3.59 µM
same,TGI,786-0,23.7 µM
same,growth at 100 µM,NCI-H460,-36%
same,GI50,M14,3.84 µM
same,TGI,M14,12.5 µM
same,growth at 0.01 µM,SF-295,98%
same,growth at 0.01 µM,SR,89%
same,GI50,NCI-H23 [9],4.18 µM
same,TGI,NCI-H23 [9],26.7 µM
same,growth at 0.1 µM,MCF7,87%
same,growth at 100 µM,TK-10,-18%
same,growth at 1 µM,HL-60(TB) [10],113%
same,growth at 1 µM,OVCAR-3,98%
N#CCCCCCn1cc(C2=C(c3cn(CCCCCC#N)c4ccccc34)C(=O)N(O)C2=O)c2ccccc21,growth at 100 µM,SK-MEL-2 [1],-38%
same,growth at 1 µM,NCI-H23 [2],94%
same,growth at 100 µM,HCC 2998,1%
same,growth at 100 µM,A549,5%
same,GI50,MOLT-4,2.93 µM
same,TGI,MOLT-4,> 100 µM
same,CC50,MOLT-4,> 100 µM
same,growth at 0.01 µM,MDA-MB-468 [3],106%
same,growth at 100 µM,PC-3,-4%
same,growth at 0.1 µM,MDA-MB-468 [4],105%
same,GI50,MDA-MB-231 [5],4.26 µM
same,LC50 (50% lethal concentration),MDA-MB-231 [5],> 100 µM
same,TGI,MDA-MB-231 [5],64.7 µM
same,growth at 0.1 µM,HOP-62,85%
same,GI50,OVCAR-5,38.4 µM
same,LC50,OVCAR-5,> 100 µM
same,TGI,OVCAR-5,> 100 µM
same,growth at 1 µM,IGROV-1,104%
same,growth at 100 µM,HL-60(TB) [6],-27%
same,growth at 0.01 µM,HT-29,100%
same,growth at 0.1 µM,SK-OV-3,88%
same,growth at 0.01 µM,SF-539,94%
same,growth at 100 µM,MDA-MB-231 [7],-7%
same,growth at 0.1 µM,SK-MEL-2 [8],98%
same,growth at 1 µM,DU-145,107%
same,growth at 100 µM,NCI-H226,-8%
same,growth at 1 µM,K562,94%
same,GI50,HCT-15,3.88 µM
same,LC50,HCT-15,> 100 µM
same,TGI,HCT-15,> 100 µM
same,growth at 0.1 µM,CAKI-1,95%
same,growth at 0.01 µM,SK-MEL-5,99%
same,growth at 1 µM,BT-549,89%
same,GI50,786-0,10.3 µM
same,LC50,786-0,> 100 µM
same,TGI,786-0,> 100 µM
same,growth at 100 µM,NCI-H460,-26%
same,GI50,M14,4.42 µM
same,LC50 (concentration killing 50% of cells),M14,> 100 µM
same,TGI,M14,34 µM
same,growth at 0.01 µM,SF-295,98%
same,growth at 0.01 µM,SR,84%
same,GI50,NCI-H23 [9],6.09 µM
same,LC50 (concentration killing 50% of cells),NCI-H23 [9],> 100 µM
same,TGI,NCI-H23 [9],> 100 µM
same,growth at 0.1 µM,MCF7,85%
same,growth at 100 µM,TK-10,12%
same,growth at 1 µM,HL-60(TB) [10],100%
same,growth at 1 µM,OVCAR-3,101%
